Experimental findings from patent US20260241013A1, “TARGETED PROTEIN DEGRADATION USING PRODRUGS OF BIFUNCTIONAL COMPOUNDS THAT BIND UBIQUITIN LIGASE AND A TARGET MCL-1 PROTEIN” (Captor Therapeutics S.A., priority 2022, published 2026) are described below.

Common to all, as to type: cell-based
One data set has as its target T1, CRBN (Homo sapiens, UniProt Q96SW2).
T1 construct: host or cells: HEK293 (NanoLuc CRBN HEK293 cells)
Put plainly: NanoBRET In-cell CRBN Target Engagement Assay (live and lytic mode), NanoLuc CRBN HEK293 cells. Here is the method:
Commercially available, NanoBRET In-cell CRBN Target Engagement Assay (NanoBRET CRBN TE Assay), which uses NanoLuc CRBN HEK293 cells and NanoBRET In-cell CRBN Tracer was used (N2910, N2912, PROMEGA) to determine the cell membrane permeability of prodrugs of MCL-1 degraders.
The assay was run in 96-well plate format (cat. 3600, Corning). NanoLuc CRBN HEK293 cells were treated with CRBN Tracer and compounds. Briefly, prepared was cell suspension (0.17×10^6cells/ml) in Opti-MEM without phenol red (Life Technologies). The cells were treated with CRBN Tracer (20× concentrated, 5 μl/well. For the live mode: 0.8 μM and for the lytic: 0.17 μM final concentration) or DMSO vehicle control (20× concentrated, 5 μl/well). Such prepared cells were seeded into the wells of 96-well plate on top of compounds (100× concentrated, 1 μl/well; 11-point 2-fold dilution) pre-plated on them with the help of Echo 555 acoustic dispenser (Labcyte). For the lytic mode assay, Digitonin (0.05 mg/ml, 10× concentrated, 10 μl/well) was added additionally. In the live mode assay, the plate was incubated at 37° C., 5% CO2 for 2 hours, and then at room temperature for 15 minutes to cool down. In the lytic mode assay, there was no incubation. The 3×Complete NanoBRET reagent (50 μl/well) was prepared according to the manufacturer's recommendations, appropriately for live and lytic mode. The plate was incubated for 2 minutes at room temperature and the luminescence and fluorescence readings followed using CLARIOstar Multimode Plate Reader (donor emission RLU—450 nm; acceptor emission RFU—610 nm). RBA value is an indicator of cell membrane permeability (the lower, the better) is calculated from absolute pIC50 (the negative log of the absolute IC50 value when converted to molar) of the live mode assay (pIC50 Live) and the lytic mode assay (pIC50 Lytic).

The next data set concerns the target T2, MCL-1 protein (Homo sapiens, UniProt Q07820).
T2 construct: endogenous in cells; host or cells: MV4-11
The data set can be described thus: MCL-1 protein degradation in MV4-11 cells, Western blot. Particulars: 6 hours; for MCL-1 protein abundance: MV4-11, % of DMSO control; for MCL-1 protein degradation (Western blot, in words): MV4-11 cells. Here is the method:
MV4-11 cells were maintained in IMDM medium, supplemented with penicillin/streptomycin and 10% Fetal Bovine Serum (FBS). MV4-11 cells were collected, centrifuged (250 rcf, 5 min), resuspended in a growth medium containing 10% FBS and counted. The cell suspension was then adjusted to 1×10^6 cells/ml using a growth medium containing 10% FBS. Afterwards, 0.5×10^6 cells were seeded on 24-well plates in 0.5 mL of medium per well. Immediately after seeding, cells were pre-treated for 30 minutes with DMSO or pan-caspase inhibitor—Q-VD-Oph. Next, compounds from stocks pre-diluted in DMSO were added directly to the cell culture medium in appropriate concentrations (the final DMSO concentration was 0.5%). Following the 6 hours treatment with the compounds, cells were collected from the plates and suspended in a lysis buffer (2% SDS, 50 mM Tris, pH 8.0, 100 U/ml Pierce Universal Nuclease for Cell Lysis, complete EDTA-free Protease Inhibitor Cocktail) and incubated on ice for 45 min. The amount of protein was determined via BCA assay, and an equal quantity of each sample was loaded on the precast gel for protein separation. After the antibody staining for MCL-1, α-tubulin, and cleaved forms of PARP and caspase 3, the membranes were washed and signals developed.
Densitometric values for MCL-1 were normalized to total protein level (stain-free membrane). [%] of protein reduction is calculated in comparison to the cells treated with DMSO, which stand for 0%.
In general terms: Immunoblotting shows a protein as a band on a membrane.

A short description of data set [1]: Cell viability assay (CellTiter-Glo, CTG protocol), ARH-77. Particulars: human, ARH-77 cells (lymphoblast-like), ARH-77 (MCL-1 independent line), 24 hours incubation, 1% FBS, read-out: Average pCC50 by molecule ARH-77 (converted). From the text:
(§1) The effect of various compounds of the invention on the viability of MV4-11 and ARH-77 cell lines was investigated, using the CTG protocol described below.
(§2) MV4-11 cell lines are derived from acute myeloid leukaemia and it is described in the literature as a MCL-1 dependent cell line, as opposed to lymphoblast-like ARH-77 cell line, which is described as independent of MCL-1 (Tron A E et al. Nat Commun. 2018; 9: 5341; Caenepeel S et al. Cancer Discov. 2018 December; 8(12): 1582-1597).
(§3) Cells (MV4-11 or ARH-77) were seeded on […] in a growth medium with 1% FBS. Next, compound stocks were pre-diluted in DMSO and added directly to the cell culture media (final DMSO concentration: 0.5%). Compound concentrations used in this assay: 1/3 dilutions starting at 30 μM (9 to 12 points). After 24 hours of incubation, cell viability was evaluated using CellTiter-Gob® Luminescent Cell Viability Assay (Promega, cat #G7572). The luminescence signal was measured using a CLARIOstar Plus Multi-Mode Microplate Reader (574-590 nm).
(§4) Results were normalized to DMSO control. Collected data were analyzed using GraphPad Prism to calculate pCC50 values (i.e. the negative log of the CC50 value). CC50 (50% cytotoxic concentration) is the effective concentration of a cytotoxic compound, which produces 50% of the maximum possible cell death (i.e. the concentration of the compound which is required in order to reduce cell viability by 50%). CC50 is often used rather than IC50 in cell toxicity assays.
(In ATP-based viability assays light output follows the ATP content of the culture.)

The subject of a further data set is MV4-11 cells. The data set can be described thus: Cell viability assay (CellTiter-Glo, CTG protocol), MV4-11. Particulars: Homo sapiens, MV4-11 (MCL-1 dependent AML line), 24 hours incubation, 1% FBS, read-out: Average pCC50 by molecule MV4-11 (converted).
Description: as §1, §2, §3, §4

Setting [2] is: live mode, intact cells, 2 hours at 37° C., read-out: pIC50 (live) (converted).
Setting [3] is: lytic mode, digitonin-lysed cells, no incubation, read-out: pIC50 (lytic) (converted).
Setting [4] is: 1 nM, + Q-VD-Oph (pan-caspase inhibitor).
The mark [5] stands for this setting: 10 nM, + Q-VD-Oph (pan-caspase inhibitor).
The mark [6] stands for this setting: 100 nM, + Q-VD-Oph (pan-caspase inhibitor).

Read-outs that look alike come from different tables or passages of the source.

T2 sequence (Q07820 whole entry): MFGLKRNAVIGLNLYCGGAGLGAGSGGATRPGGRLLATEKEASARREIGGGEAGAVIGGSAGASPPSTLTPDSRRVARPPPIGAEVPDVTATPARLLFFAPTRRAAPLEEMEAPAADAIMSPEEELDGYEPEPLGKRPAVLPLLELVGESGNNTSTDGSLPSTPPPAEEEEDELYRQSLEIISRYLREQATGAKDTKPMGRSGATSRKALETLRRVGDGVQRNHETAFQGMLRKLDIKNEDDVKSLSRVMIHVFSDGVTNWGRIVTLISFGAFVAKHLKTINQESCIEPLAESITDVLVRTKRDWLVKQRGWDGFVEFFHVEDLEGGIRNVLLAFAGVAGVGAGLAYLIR
T1 sequence (Q96SW2 whole entry): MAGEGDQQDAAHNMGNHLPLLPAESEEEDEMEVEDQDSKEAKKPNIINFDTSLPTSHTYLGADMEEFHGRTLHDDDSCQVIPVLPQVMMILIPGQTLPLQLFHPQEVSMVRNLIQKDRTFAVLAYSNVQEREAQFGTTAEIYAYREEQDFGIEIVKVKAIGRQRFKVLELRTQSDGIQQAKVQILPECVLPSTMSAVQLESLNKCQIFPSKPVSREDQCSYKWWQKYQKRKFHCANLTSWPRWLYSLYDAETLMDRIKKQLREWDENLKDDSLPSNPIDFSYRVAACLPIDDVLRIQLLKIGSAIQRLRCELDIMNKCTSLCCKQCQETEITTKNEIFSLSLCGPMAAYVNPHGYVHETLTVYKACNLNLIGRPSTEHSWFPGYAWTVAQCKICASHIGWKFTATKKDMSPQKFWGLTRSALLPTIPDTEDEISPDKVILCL

For `CC(=O)OCOC(=O)c1c(CCCOc2cccc3cc(F)ccc23)c2ccc(Cl)c(-c3c(C)nn(C)c3C)c2n1CCN1CCN(C(=O)COc2cccc3c2CN(C2CCC(=O)NC2=O)C3=O)CC1` (stereo not shown) [Compound 41, Acetoxymethyl 6-chloro-1-(2-(4-(2-((2-(2,6-dioxopiperidin-3-yl)-1-oxoisoindolin-4-yl)oxy)acetyl)piperazin-1-yl)ethyl)-3-(3-((6-fluoronaphthalen-1-yl)oxy)propyl)-7-(1,3,5-trimethyl-1H-pyrazol-4-yl)-1H-indole-2-carboxylate], the results for the IC50 at CRBN (setting [2]) and at CRBN (setting [3]) were 7.94 nM and 501 nM, respectively. For the same compound, the MCL-1 protein abundance entry at MCL-1 protein (setting [4]) was “B (Amount of MCL-1 protein >25% and ≤50% calculated as % of DMSO control)”; at MCL-1 protein (setting [5]), “A (Amount of MCL-1 protein ≤25% calculated as % of DMSO control)”; on MCL-1 protein (setting [6]), “A (Amount of MCL-1 protein ≤25% calculated as % of DMSO control)”. On MCL-1 protein (in the presence of apoptosis inhibitor), the “MCL-1 protein degradation (Western blot, in words)” value was “MCL-1 protein degradation”. Also, the CC50 at 24 h in data set [1] is above 10000 nM. Besides, the CC50 in the data set with MV4-11 cells was below 1 nM.

For the compound `Cc1nn(C)c(C)c1-c1c(Cl)ccc2c(CCCOc3cccc4cc(F)ccc34)c(C(=O)OCOC(=O)C(C)(C)C)n(CCN3CCN(C(=O)COc4cccc5c4CN(C4CCC(=O)NC4=O)C5=O)CC3)c12` (stereo not shown) [Compound 69, (6-Chloro-1-{2-[4-(2-{[2-(2,6-dioxopiperidin-3-yl)-1-oxo-2,3-dihydro-1H-isoindol-4-yl]oxy}acetyl)piperazin-1-yl]ethyl}-3-{3-[(6-fluoronaphthalen-1-yl)oxy]propyl}-7-(1,3,5-trimethyl-1H-pyrazol-4-yl)-1H-indole-2-carbonyloxy)methyl 2,2-dimethylpropanoate], the IC50 on CRBN (setting [2]) is 39.8 nM; at CRBN (setting [3]) it was 6310 nM. For the same compound, the MCL-1 protein abundance result was “C (Amount of MCL-1 protein >50% and <75% calculated as % of DMSO control)” on MCL-1 protein (setting [4]); “C (Amount of MCL-1 protein >50% and <75% calculated as % of DMSO control)” on MCL-1 protein (1 nM, without Q-VD-Oph); “B (Amount of MCL-1 protein >25% and ≤50% calculated as % of DMSO control)” at MCL-1 protein (setting [5]); “B (Amount of MCL-1 protein >25% and ≤50% calculated as % of DMSO control)” at MCL-1 protein (10 nM, without Q-VD-Oph); “B (Amount of MCL-1 protein >25% and ≤50% calculated as % of DMSO control)” at MCL-1 protein (setting [6]); “A (Amount of MCL-1 protein ≤25% calculated as % of DMSO control)” at MCL-1 protein (100 nM, without Q-VD-Oph). Besides, at MCL-1 protein (apoptosis not blocked), the “MCL-1 protein degradation (Western blot, in words)” value is given as “MCL-1 protein degradation”. The CC50 at 24 h in data set [1] was above 31600 nM. Further, the CC50 in the data set with MV4-11 cells was below 10 nM.

With `Cc1nn(C)c(C)c1-c1c(Cl)ccc2c(CCCOc3cccc4cc(F)ccc34)c(C(=O)OCOC(=O)C(C)(C)C)n(CCN3CCN(C(=O)COc4cccc5c4n(C)c(=O)n5C4CCC(=O)NC4=O)CC3)c12` (stereo not shown) [Compound 73, (Pivaloyloxy)methyl 6-chloro-1-(2-(4-(2-((1-(2,6-dioxopiperidin-3-yl)-3-methyl-2-oxo-2,3-dihydro-1H-benzo[d]imidazol-4-yl)oxy)acetyl)piperazin-1-yl)ethyl)-3-(3-((6-fluoronaphthalen-1-yl)oxy)propyl)-7-(1,3,5-trimethyl-1H-pyrazol-4-yl)-1H-indole-2-carboxylate], the IC50 on CRBN (setting [2]) was 6.31 nM; on CRBN (setting [3]), 398 nM. The CC50 at 24 h in data set [1] is above 1000 nM. Also, the CC50 with MV4-11 cells is below 3.16 nM.

Consider `Cc1nn(C)c(C)c1-c1c(Cl)ccc2c(CCCOc3cccc4cc(F)ccc34)c(C(=O)OCOC(=O)C(C)(C)C)n(CCN3CCN(C(=O)COc4ccc5c(c4)n(C)c(=O)n5C4CCC(=O)NC4=O)CC3)c12` (stereo not shown) [Compound 74, (Pivaloyloxy)methyl 6-chloro-1-(2-(4-(2-((1-(2,6-dioxopiperidin-3-yl)-3-methyl-2-oxo-2,3-dihydro-1H-benzo[d]imidazol-5-yl)oxy)acetyl)piperazin-1-yl)ethyl)-3-(3-((6-fluoronaphthalen-1-yl)oxy)propyl)-7-(1,3,5-trimethyl-1H-pyrazol-4-yl)-1H-indole-2-carboxylate], for which the IC50 is 12.6 nM at CRBN (setting [2]) and 316 nM on CRBN (setting [3]). In addition, the CC50 at 24 h in data set [1] is above 1000 nM. Further, the CC50 in the data set on MV4-11 cells is below 3.16 nM.

As for `CCOCCOCCOC(=O)OC(C)OC(=O)c1c(CCCOc2cccc3cc(F)ccc23)c2ccc(Cl)c(-c3c(C)nn(C)c3C)c2n1CCN1CCN(C(=O)COc2cccc3c2CN(C2CCC(=O)NC2=O)C3=O)CC1` (stereo not shown) [Compound 101, 4-Oxo-3,5,8,11-tetraoxatridecan-2-yl 6-chloro-1-(2-(4-(2-((2-(2,6-dioxopiperidin-3-yl)-1-oxoisoindolin-4-yl)oxy)acetyl)piperazin-1-yl)ethyl)-3-(3-((6-fluoronaphthalen-1-yl)oxy)propyl)-7-(1,3,5-trimethyl-1H-pyrazol-4-yl)-1H-indole-2-carboxylate], the results for the IC50 on CRBN (setting [2]) and at CRBN (setting [3]) were 63.1 nM and 794 nM, respectively. The CC50 at 24 h in data set [1] is above 31600 nM. In addition, in the data set on MV4-11 cells, the CC50 is below 31.6 nM.
